Laboratory results reported in patent US20180219160A1, “BENZOBIS(THIADIAZOLE) DERIVATIVE, INK COMPRISING THE SAME, AND ORGANIC ELECTRONIC DEVICE USING THE SAME” (UBE INDUSTRIES, LTD., priority 2014, published 2018).

Experiments:
[1] = Thermal weight loss analysis (initial decomposition temperature); type: physicochemical
[2] = Evaluation of solubility in organic solvents (visual observation of complete dissolution); type: physicochemical
Experimental: [Evaluation of Solubility] The evaluation of the solubility of the synthesized compound was conducted by the following method.
About 2-3 mg of the synthesized compound was precisely weighed, and each solvent was added to the compound such that a predetermined concentration of the solute (0.3 wt %, 0.2 wt %, 0.1 wt %) was reached. The resultant mixture was stirred for 30 minutes at a predetermined temperature, and then it was evaluated by visual appearance observation whether or not the solute (synthesized compound) was completely dissolved in the solvent, which was the result of the evaluation of the solubility. As the solvent, chloroform (boiling point 61° C.), toluene (boiling point 111° C.), anisole (boiling point 154° C.), mesitylene (boiling point 165° C.), ortho-dichlorobenzene (boiling point 181° C.) and 1-methylnaphthalene (boiling point 241° C.) were used.

[3] = 1-methylnaphthalene, room temperature (25° C.)
[4] = chloroform, room temperature (25° C.)
[5] = mesitylene, room temperature (25° C.)

| SMILES | initial decomposition temperature [1] | solubility (concentration completely dissolved) [2, 3] | solubility (concentration completely dissolved) [2, 4] | also measured |
| --- | --- | --- | --- | --- |
| CCCCCCN1C(=O)c2cc3cc(-c4c5c(c(-c6cc7cc8c(cc7s6)C(=O)N(CCCCCC)C8=O)c6nsnc46)N=S=N5)sc3cc2C1=O [Compound (22-6)] | 405 °C | – | – | – |
| CCCCC(CC)CN1C(=O)c2cc(-c3c4c(c(-c5cc6c(s5)C(=O)N(CC(CC)CCCC)C6=O)c5nsnc35)N=S=N4)sc2C1=O (stereo not drawn) [Compound (12-EH)] | 369 °C | ≥ 0.3 wt % | ≥ 0.2 wt % | solubility (concentration completely dissolved) ([2]; mesitylene, 80° C.): ≥ 0.3 wt %; solubility (concentration completely dissolved) ([2]; ortho-dichlorobenzene, room temperature (25° C.)): ≥ 0.3 wt/o; solubility (concentration completely dissolved) ([2]; toluene, 60° C.): ≥ 0.3 wt % |
| CCCCCCN1C(=O)c2cc(-c3c4c(c(-c5cc6c(s5)C(=O)N(CCCCCC)C6=O)c5nsnc35)N=S=N4)sc2C1=O [Compound (12-6)] | 364 °C | ≥ 0.1 wt % | ≥ 0.2 wt % | solubility (concentration completely dissolved) ([2]; mesitylene, 80° C.): ≥ 0.3 wt %; solubility (concentration completely dissolved) ([2]; toluene, 80° C.): ≥ 0.3 wt % |
| CN1C(=O)c2cc3cc(-c4c5c(c(-c6cc7cc8c(cc7s6)C(=O)N(C)C8=O)c6nsnc46)N=S=N5)sc3cc2C1=O [Compound (22-1)] | 475 °C | – | – | – |
| CCCCCCCCCCCCN1C(=O)c2cc(-c3c4c(c(-c5cc6c(s5)C(=O)N(CCCCCCCCCCCC)C6=O)c5nsnc35)N=S=N4)sc2C1=O [Compound (12-12)] | 360 °C | – | ≥ 0.1 wt % | solubility (concentration completely dissolved) ([2]; mesitylene, 60° C.): ≥ 0.3 wt %; solubility (concentration completely dissolved) ([2]; toluene, 60° C.): ≥ 0.3 wt % |
| CN1C(=O)c2cc(-c3c4c(c(-c5cc6c(s5)C(=O)N(C)C6=O)c5nsnc35)N=S=N4)sc2C1=O [Compound (12-Me)] | 367 °C | – | – | – |
| CCCCCCCCN1C(=O)c2cc(-c3c4c(c(-c5cc6c(s5)C(=O)N(CCCCCCCC)C6=O)c5nsnc35)N=S=N4)sc2C1=O [Compound (12-8)] | 367 °C | ≥ 0.3 wt % | ≥ 0.2 wt % | solubility (concentration completely dissolved) [2, 5]: ≥ 0.3 wt %; solubility (concentration completely dissolved) ([2]; toluene, room temperature (25° C.)): ≥ 0.3 wt % |
| O=C1c2cc(-c3c4c(c(-c5cc6c(s5)C(=O)N(CC(F)(F)C(F)(F)C(F)(F)F)C6=O)c5nsnc35)N=S=N4)sc2C(=O)N1CC(F)(F)C(F)(F)C(F)(F)F [Compound (12-HepFBu)] | 367 °C | – | ≥ 0.1 wt % | solubility (concentration completely dissolved) ([2]; anisole, room temperature (25° C.)): ≥ 0.1 wt %; solubility (concentration completely dissolved) [2, 5]: ≥ 0.1 wt % |
